Test results published in patent US20250257071A9, “TRICYCLIC COMPOUND, METHOD FOR PREPARING SAME, AND USE THEREOF” (Sichuan Kelun-Biotech Biopharmaceutical Co., Ltd., priority 2021, published 2025).

Legend:
human TLR8 = human TLR8 (Homo sapiens (Human), UniProt Q9NR97); assay: Agonistic activity of compounds on HEK-Blue hTLR8 cells (QUANTI-Blue reporter, OD620); assay type: cell-based; conditions: for Emax (OD620): OD620 at maximum activation effect
Protocol: • 1. HEK-Blue hTLR8 cells (Invivogen) were cultured in DMEM medium (Hyclone) containing 10% FBS heat-inactivated fetal bovine serum (Corning). On the day of detection, the cell state was observed under a microscope, the cells were collected and resuspended, and the cell concentration was adjusted after counting, 50 μL per well, the total amount of cells was 2×10^4, and the cells were inoculated in a 96-well plate. • 2. After the cells adhered to the wall overnight, 50 μL of the test compound at different concentrations was added to the well plate, so that the final concentrations were 100 μM, 25 μM, 6.25 μM, 1.56 μM, 0.39 μM, 0.10 μM, 0.02 μM, 0.006 μM, 0 μM, or 100 μM, 33.3 μM, 11.11 μM, 3.70 μM, 1.23 μM, 0.41 μM, 0.14 μM, 0.05 μM, 0 μM, and the final concentration of DMSO was 1%. The compound was incubated with the cells in a 37° C., 5% CO2 incubator for 20 hours. • 3. After the incubation, observation was performed under microscope to determine the maximum signal well, the state of the cells with the highest and lowest concentrations of the compound, and whether the compound will crystalize at high concentration. 10 μL of cell culture supernatant was transferred to a new 96-well transparent plate, added with 90 μL of QUANTI-Blue (Invivogen) detection reagent to each well, incubated at 37° C. for 3 hours, and OD620 was read with a multifunctional microplate reader (BMG LABTECH). • 4. EC50 was calculated by fitting with Graphpad Prism software log(agonist) vs. Response—Variable slope, and Emax was the OD620 at which the activation effect of the test compound reached the maximum.

human TLR7 = human TLR7 (Homo sapiens (Human), UniProt Q9NYK1); assay: Agonistic activity of compounds on HEK-Blue hTLR7 cells (QUANTI-Blue reporter, OD620); assay type: cell-based; conditions: for Emax (OD620): OD620 at maximum activation effect
Chain of human TLR7 (Q9NYK1 27-1049): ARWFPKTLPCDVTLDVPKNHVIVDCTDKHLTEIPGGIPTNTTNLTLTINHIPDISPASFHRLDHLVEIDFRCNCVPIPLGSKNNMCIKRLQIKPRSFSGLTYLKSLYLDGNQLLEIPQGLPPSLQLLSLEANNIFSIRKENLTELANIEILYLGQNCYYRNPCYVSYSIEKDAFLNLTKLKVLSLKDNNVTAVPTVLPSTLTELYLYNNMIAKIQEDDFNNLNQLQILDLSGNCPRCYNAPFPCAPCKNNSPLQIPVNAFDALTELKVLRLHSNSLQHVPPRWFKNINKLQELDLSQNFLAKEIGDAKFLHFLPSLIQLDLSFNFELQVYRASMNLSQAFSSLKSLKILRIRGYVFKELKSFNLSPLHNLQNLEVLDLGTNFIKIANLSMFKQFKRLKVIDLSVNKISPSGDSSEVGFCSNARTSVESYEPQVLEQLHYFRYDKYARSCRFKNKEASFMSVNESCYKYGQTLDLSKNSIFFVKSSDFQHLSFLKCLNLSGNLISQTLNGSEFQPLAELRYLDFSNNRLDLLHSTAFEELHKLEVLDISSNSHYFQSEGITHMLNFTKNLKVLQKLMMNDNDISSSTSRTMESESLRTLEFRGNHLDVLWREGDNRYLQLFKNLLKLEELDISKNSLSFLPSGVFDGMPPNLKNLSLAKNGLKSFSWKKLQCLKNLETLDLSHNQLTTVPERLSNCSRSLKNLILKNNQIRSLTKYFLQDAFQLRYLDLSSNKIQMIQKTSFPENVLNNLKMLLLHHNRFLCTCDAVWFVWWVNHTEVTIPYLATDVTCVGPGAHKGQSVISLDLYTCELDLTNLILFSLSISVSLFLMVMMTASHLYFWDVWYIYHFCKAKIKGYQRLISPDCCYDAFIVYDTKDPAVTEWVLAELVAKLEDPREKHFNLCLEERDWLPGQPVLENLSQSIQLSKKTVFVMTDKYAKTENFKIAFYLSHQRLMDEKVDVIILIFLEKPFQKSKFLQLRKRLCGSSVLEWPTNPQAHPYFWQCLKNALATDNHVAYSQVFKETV
Protocol: • 1. HEK-Blue hTLR7 cells (Invivogen) were cultured in DMEM medium (Hyclone) containing 10% FBS heat-inactivated fetal bovine serum (Corning). On the day of detection, the cell state was observed under a microscope, the cells were collected and resuspended, and the cell concentration was adjusted after counting, 50 μL per well, the total amount of cells was 2×10^4, and the cells were inoculated in a 96-well plate. • 2. After the cells adhered to the wall overnight, 50 μL of the test compound at different concentrations was added into the well plate, so that the final concentrations were 100 μM, 33.3 μM, 11.11 μM, 3.70 μM, 1.23 μM, 0.41 μM, 0.14 μM, 0.05 μM, 0 μM, and the final concentration of DMSO was 1%. The compound was incubated with the cells in a 37° C., 5% CO2 incubator for 20 h. • 3. After the incubation, observation under microscope was performed to determine the maximum signal well, the states of the cells with the highest and lowest concentrations of the compound, and whether the compound will crystalize at high concentration. 10 μL of cell culture supermatant was taken and transferred to a new 96-well transparent plate, 90 μL of QUANTI-Blue (Invivogen) detection reagent was added to each well, and incubated at 37° C. for 3 h, and OD620 was read with a multifunctional microplate reader (BMG LABTECH). • 4. EC50 was calculated by fitting with Graphpad Prism software log(agonist) vs. response—Variable slope, and Emax was the (D620 at which the activation effect of the test compound reached the maximum.

Chain of human TLR8 (Q9NR97 27-1041): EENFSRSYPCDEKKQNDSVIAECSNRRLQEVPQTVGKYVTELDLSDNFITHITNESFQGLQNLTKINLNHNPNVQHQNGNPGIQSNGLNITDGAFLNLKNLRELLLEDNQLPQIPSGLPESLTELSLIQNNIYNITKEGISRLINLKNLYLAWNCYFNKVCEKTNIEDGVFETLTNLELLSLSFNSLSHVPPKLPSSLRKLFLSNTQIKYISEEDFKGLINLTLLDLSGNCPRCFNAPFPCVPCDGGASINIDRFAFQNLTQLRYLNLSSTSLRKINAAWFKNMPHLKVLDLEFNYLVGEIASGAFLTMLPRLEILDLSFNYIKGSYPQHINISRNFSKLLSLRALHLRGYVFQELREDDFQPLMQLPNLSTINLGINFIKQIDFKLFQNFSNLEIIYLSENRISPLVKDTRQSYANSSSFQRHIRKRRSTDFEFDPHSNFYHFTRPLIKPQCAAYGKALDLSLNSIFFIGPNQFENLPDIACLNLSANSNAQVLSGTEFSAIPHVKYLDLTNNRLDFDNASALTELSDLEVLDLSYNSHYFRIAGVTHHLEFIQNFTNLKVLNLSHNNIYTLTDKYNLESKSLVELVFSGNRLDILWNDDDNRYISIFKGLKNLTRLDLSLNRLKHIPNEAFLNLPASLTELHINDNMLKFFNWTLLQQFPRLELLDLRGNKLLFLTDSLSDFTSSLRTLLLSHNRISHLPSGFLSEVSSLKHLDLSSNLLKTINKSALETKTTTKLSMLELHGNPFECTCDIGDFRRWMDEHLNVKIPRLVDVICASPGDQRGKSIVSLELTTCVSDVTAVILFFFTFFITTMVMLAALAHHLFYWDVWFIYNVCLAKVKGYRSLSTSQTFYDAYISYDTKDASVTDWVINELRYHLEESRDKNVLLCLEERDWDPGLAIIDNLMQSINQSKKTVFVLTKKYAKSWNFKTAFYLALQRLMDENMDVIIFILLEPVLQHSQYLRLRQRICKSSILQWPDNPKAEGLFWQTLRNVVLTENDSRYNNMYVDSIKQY

activation effect on human TLR8 (in words) (human TLR8)	Emax (OD620) (human TLR8)	activation effect on human TLR7 (in words) (human TLR7)	Emax (OD620) (human TLR7)	Compound
strong activation effect	1.86 OD620	strong activation effect	1.43 OD620	CCCCc1nc2c(N)nc3cc(C)sc3c2n1CC1CCNCC1 [Compound 3, 2-butyl-7-methyl-1-(piperidin-4-ylmethyl)-1H-imidazo[4,5-d]thieno[3,2-b]pyridine-4-amine]
strong activation effect	0.84 OD620	strong activation effect	1.59 OD620	CCCCc1nc2c(N)nc3ccsc3c2n1CC1CCN(C)CC1 [Compound 27, 2-butyl-1-[(1-methylhexahydropyridin-4-yl)methyl]thieno[3,2-b]imidazo[4,5-d]pyridine-4-amine]
strong activation effect	1.11 OD620	strong activation effect	1.08 OD620	CCCCc1nc2c(N)nc3cc(C4CCN(C)CC4)sc3c2[nH]1 [Compound 6, 2-butyl-7-(1-methylpiperidin-4-yl)-1H-imidazo[4,5-d]thieno[3,2-b]pyridine-4-amine]
strong activation effect	1.43 OD620	strong activation effect	1.36 OD620	CCCCc1nc2c(N)nc3cc(C)sc3c2n1CCCCN [Compound 1, 1-(4-aminobutyl)-2-butyl-7-methyl-1H-imidazo[4,5-d]thieno[3,2-b]pyridine-4-amine]
strong activation effect	0.67 OD620	strong activation effect	1.46 OD620	CCCCc1nc2c(N)nc3cc(C4CCNCC4)sc3c2n1CC1CCOCC1 [Compound 33, 2-butyl-7-(hexahydropyridin-4-yl)-1-(3,4,5,6-tetrahydro-2H-pyran-4-ylmethyl)thieno[3,2-b]imidazo[4,5-d]pyridine-4-amine]
strong activation effect	1.37 OD620	strong activation effect	1.36 OD620	CCCCc1nc2c(N)nc3ccsc3c2n1CCCCN [Compound 2, 1-(4-aminobutyl)-2-butyl-1H-imidazo[4,5-d]thieno[3,2-b]pyridine-4-amine]
